# Experiments:
# [1] = system: HD (Q111/Q111) striatal cells; test: Western blot analysis of SETDB1 protein and H3K9me3 level in HD (Q111) cells; format: cell-based; conditions: HD (Q111) cell
# Protocol: Cells were homogenised with Dounce homogeniser in […] of phosphate-buffered saline containing 0.4 mM sodium butyrate, 5% Triton X-100, 3 mM DTT, 1 mM sodium orthovanadate, 5 mM sodium fluoride, 3 mM PMSF, 3 mM DTT, 0.5 mg/ml leupeptin, and 10 mg/ml aprotinin as previously described. The nuclear pellets were collected and washed twice with the above-described 5% Triton buffer. Histones were extracted by solubilising in […] of 0.2 M HCl on a shaker for 2 h. After neutralising the pH of the acid-extracted solution containing the histone pool with ammonium acetate, the protein content was quantified. Each histone extract (an amount of […]) was placed onto each well of the dot blot apparatus pre-assembled with a nitrocellulose membrane and vacuumed for 30 min. After releasing the vacuum, the nitrocellulose membrane was removed and washed twice with TBS-T for 5 min. Then, the nitrocellulose membrane was blocked with 5% milk/TBS-T for 30 min and subsequently incubated with primary antibody in 5% milk/TBS-T for 24 h at cold room. The nitrocellulose membrane was washed twice with TBS-T for 5 min and incubated with secondary antibody in 1% milk (15 ml) for one hour at room temperature. After washing the membrane twice with TBS-T for 5 min, the immune reactivity was developed with Chemiluminescent Kit. […]
# striatum of YAC128 mice = test: Histology and immunohistochemistry of the striatum of YAC128 mice (Nissl, H3K9me3, DARPP-32, calbindin, DAPI, SUV39H1); format: in vivo, mouse
# Protocol: YAC128 mice were bred with females from their background strain (B6CBAFI/J), and offspring were genotyped using PCR as previously described. All mice were weighed at 3 weeks of age and equally distributed according to weight and percentage within each cohort. […] The biochemical and behavioural/neuropathological symptoms of mice were determined after 4 weeks of drug administration. These procedures were performed in accordance with Guide for the Care and Use of Laboratory Animals guidelines. The animal protocol was approved by IACUC (Institutional Animal Care and Use Committee) in Hanyang University, Ansan, Republic of Korea.
# Immunofluorescence staining and confocal microscopy was used to determine the trimethylated-histone H3 (Lys9) (H3K9me3) (Millipore, Billerica, MA) (1:1000). The procedures were performed as previously described. The specimens were incubated for 1 h with Alexa Fluor 594 goat anti-rabbit antibody (abcam, Cambridge, UK; 1:400) after incubation of the primary antibody. Images were analysed using an A1 Nikon confocal laser scanning microscope (Nikon, Tokyo, Japan).
# DARPP-32 is a dopamine- and cAMP-regulated neuronal phosphoprotein, which plays an important role in dopamine neurotransmission. Its expression is severely impaired in the striatum of YAC128 mice compared with that of WT mice.
# White nodes are interacting genes with the seed genes identified by the network analysis algorithm of IPA. The network represented dense connections between the epigenome associated with chromatin modification (such as Suv39h1, Mecp2, KDM5c, etc.), transcription regulation (such as Elk1, Foxp4, Hoxa6, Dhx9, etc.), metabolic process (such as Acsl4, Fbp2, Nat2, etc.), and signal transduction pathways (such as Cnksr2, Dusp9, Rab9, etc.) (Figure 8(d)). Especially, SUV39H1, a histone H3K9 methyltransferase, was closely associated with signalling pathways and other modules (Figure 8(d)). We further verified that SUV39H1 immunoreactivity was markedly elevated in YAC128 mice (Figure 8(e)).
# SETDB1/ESET promoter = SETDB1/ESET promoter assay; format: cell-based; conditions: neuronal cells transfected with SETDB1 promoter construct, 0 to 20 µM
# Protocol: STHdh^Q7/Q7 (wild type) and STHdh^Q111/Q111 (HD knock-in striatal cell line expresses mutant huntingtin at endogenous level) were generously provided from Dr. Marcy MacDonald (Harvard Medical School, Boston, MA)[35]. The SETDB1/ESET promoter assay was performed as previously described[24]^,[28]. Briefly, 2.5 × 10^5 cells were plated onto 48-well cell culture plates 24 h prior to the transfection of 200 ng of ETDB1/ESET promoter construct. DMRIE-C reagent (Invitrogen, Carlsbad, CA) was used as a transfection reagent and transfections were performed according to the manufacturer’s protocol. Nogalamycin and distamycin were purchased from Sigma-Aldrich (St. Louis, MO).
# Moreover, the promoter assay was carried out.
smiles,measurement,setting,value
"C=CCOc1cccc2nc(N3CCCC3)ccc12 [APQ, 5-allyloxy-2-(pyrrolidin-1-yl)quinoline]",H3K9me3 level,[1],reduced
same,SETDB1 protein levels,[1]; dose-dependent,significantly decreased
same,DARPP-32 expression in the striatum,striatum of YAC128 mice,considerably improved
same,immunoreactive intensity of calbindin stained neurons,striatum of YAC128 mice,increased
same,nuclei size of medium spiny neurons (DAPI),striatum of YAC128 mice,restores
same,H3K9me3 immunoreactivity in striatal neurons,striatum of YAC128 mice; comparable to the level of WT controls,significantly reduced
same,level of SUV39H1 (immunoreactivity) in striatal neurons,striatum of YAC128 mice; similar to the level in WT mice,significantly reduced
same,neuronal atrophy / size of striatal medium spiny neurons (Nissl staining),striatum of YAC128 mice; striatum,significantly restored
same,transcriptional activity of SETDB1 (promoter assay),SETDB1/ESET promoter,represses the transcriptional activity of SETDB1 in a dose-dependent manner

# From publication PMC8008885 (Journal of Enzyme Inhibition and Medicinal Chemistry, 2021)
